In brackets after ≈: the same amount, converted by molar mass. Read-outs that look alike come from different tables or passages of the source.
How the values were obtained:
Experiment in all cases: Antimicrobial activity, minimum inhibitory concentration (MIC)
Format in all cases: cell-based
Candida albicans 90028 = system: Candida albicans 90028
Procedure: (§1) The antimicrobial activity of CSA-148 was determined in comparison to CSA-44, a CSA compound known to have very high antimicrobial activity compared to other CSAs. The microbes used in the comparative test was were Candida albicans 90028, methicillin resistant Staphylococcus aureus (MRSA) BAA-41, and Pseudomonas aeruginosa (PA01 47085).
The measured MICs for C. albicans 90028 were based on 100% inhibition of growth (i.e. no cloudiness). Judging by 50% inhibition, which is more difficult but is typical for fungal MICs, the MIC for CSA-44 relative to C. albicans can be extrapolated to 4 μg/ml, and the MIC for CSA-148 relative to C. albicans can be extrapolated to 2 μg/ml.

[1] = system: methicillin resistant Staphylococcus aureus (MRSA) BAA-41
Procedure: as §1

[2] = system: Pseudomonas aeruginosa (PA01 47085)
Procedure: as §1

Row | MIC (Candida albicans 90028; C. albicans 90028, based on 100% inhibition of growth (no cloudiness)) | MIC (Candida albicans 90028; C. albicans, judging by 50% inhibition, extrapolated) | MIC [1] | MIC [2] | Compound | MIC (Candida albicans 90028; Candida albicans, 90028, C. albicans 90028, based on 100% inhibition of growth (no cloudiness), read-out: MIC) | MIC (Candida albicans 90028; Candida albicans, 90028, C. albicans, judging by 50% inhibition, extrapolated, read-out: MIC) | MIC ([1]; Staphylococcus aureus, read-out: MIC) | MIC ([2]; Pseudomonas aeruginosa, read-out: MIC)
1 | – | – | – | – | CC(C)=CCC/C(C)=C/COC(=O)CC[C@@H](C)[C@H]1CC[C@H]2[C@@H]3[C@H](OC(=O)CCN)C[C@@H]4C[C@H](OC(=O)CCN)CC[C@]4(C)[C@H]3C[C@H](OC(=O)CCN)[C@]12C [CSA-148] | 4 µg/mL (≈ 5.28 µM) | 2 µg/mL (≈ 2.64 µM) | 2 µg/mL (≈ 2.64 µM) | 2 µg/mL (≈ 2.64 µM)
2 | 8 µg/mL (≈ 10.9 µM) | 4 µg/mL (≈ 5.45 µM) | 2 µg/mL (≈ 2.72 µM) | 2 µg/mL (≈ 2.72 µM) | CCCCCCCCOC(=O)CC[C@@H](C)[C@H]1CC[C@H]2[C@@H]3[C@H](OC(=O)CCN)C[C@@H]4C[C@H](OC(=O)CCN)CC[C@]4(C)[C@H]3C[C@H](OC(=O)CCN)[C@]12C [CSA-44] | – | – | – | –

— patent publication US12215126B2, “Cationic steroidal antimicrobial compounds with endogenous groups” (Brigham Young University, priority 2020, dated 2025)
